Laboratory results reported in PMC3440086, “Profiling Environmental Chemicals for Activity in the Antioxidant Response Element Signaling Pathway Using a High Throughput Screening Approach” (Environmental Health Perspectives, 2012).
Entries after “also recorded” stand apart in the source; their conditions may differ. Where two headings read alike, the source gives them in different places.

Assays:
[1] = system: Nrf2-dependent ARE transcriptional activity; assay: ARE-luc luciferase reporter gene assay in HepG2 cells (qHTS); assay type: cell-based; set-up: Emax: reference not given here; details: for EC50: read-out: ARE-luc EC50
[2] = system: antioxidant response element (ARE) signaling pathway; assay: ARE-bla β-lactamase reporter gene assay in HepG2 cells (qHTS); assay type: cell-based, human; details: for EC50: read-out: ARE-bla EC50
ROS = system: ROS; set-up: method as in Chen et al. 2009; details: cell-based testing; ref Chen et al. 2009; cited from earlier work
[3] = system: hypoxia-inducible factor 1; set-up: method as in Xia et al. 2009; details: β-lactamase reporter gene assay; ref Xia et al. 2009; cited from earlier work
mutated ARE = assay type: cell-based; details: for ARE-bla mutant Efficacy: normalized to DMSO (0%) and ARE-bla maximal β-napthoflavone response (100%)
[4] = system: mitogen-activated protein kinase (MAPK) pathway; details: cited from earlier work
olfactory mucosa = system: olfactory mucosa; set-up: method as in Genter et al. 2002; details: olfactory mucosa of treated rats; ref Genter et al. 2002; cited from earlier work
[5] = Homo sapiens, HepG2, confirmation/follow-up studies, activation of ARE reporter as % of positive control (β-napthoflavone), read-out: ARE-luc Efficacy
[6] = Homo sapiens, confirmation/follow-up studies, HepG2, 16 hr exposure, mean ± SD
[7] = follow-up studies, up to 46 µM, listed as iodochlorohydroxyquinoline
[8] = Homo sapiens, HepG2, confirmation/follow-up studies, activation of ARE reporter as % of positive control (β-napthoflavone), read-out: ARE-bla Efficacy
[9] = Homo sapiens, HepG2, read-out: ARE-luc Efficacy
[10] = Homo sapiens, HepG2, read-out: ARE-bla Efficacy
[11] = confirmation/follow-up studies, HepG2, 16 hr exposure, mean ± SD
[12] = follow-up studies, up to 46 µM, listed as 1,10-phenanthroline monohydrate
[13] = primary qHTS screening, 0.59 nM to 92 µM
[14] = confirmation/follow-up studies, HepG2, mean ± SD
[15] = confirmation/follow-up studies, […]
[16] = follow-up studies, up to 46 µM, listed as melphalan
[17] = confirmation/follow-up studies, activation of ARE reporter as % of positive control (β-napthoflavone)

## Oc1c(I)cc(Cl)c2cccnc12 [Iodochlorohydroxyquinoline]
[1]; [5]
  Emax: 147%
[1]; [6]
  EC50: 10 ± 1.2 µM
[1]; follow-up studies, up to 46 µM
  activity in ARE-luc assay (words): active
[1]; [7]
  activity in ARE-luc assay (words): demonstrated activity
[2]; [8]
  Emax: 41%
[2]; [6]
  EC50: 17.2 ± 6 µM
[2]; follow-up studies, up to 46 µM
  activity in ARE-bla assay (words): active
[2]; [7]
  activity in ARE-bla assay (words): demonstrated activity
ROS
  generation of ROS: confirmed
[3]
  activation of hypoxia-inducible factor 1: activate
Mutated ARE; confirmation/follow-up studies
  ARE-bla mutant Efficacy: 21%
Mutated ARE; [7]
  activity in ARE-bla-mut assay (words): may exhibit autofluorescence; also recorded: active; also recorded: demonstrated activity

## Oc1cccc2cccnc12 [8-Hydroxyquinoline]
[1]
  activity in ARE-luc assay (words): active; also recorded: demonstrated activity
[1]; Homo sapiens, HepG2, 16 h
  EC50: 10.1 ± 3.9 µM
[1]; [9]
  Emax: 200%
[2]
  activity in ARE-bla assay (words): active; also recorded: demonstrated activity
[2]; Homo sapiens, HepG2, 16 h
  EC50: 16.1 ± 5.1 µM
[2]; [10]
  Emax: 53%
[4]
  induction of MAPK pathway: shown to induce
Mutated ARE
  ARE-bla mutant IC50: inactive

## O.c1cnc2c(c1)ccc1cccnc12 [1,10-Phenanthroline monohydrate]
[1]; [11]
  ARE-luc EC50: inactive
[1]; follow-up studies, up to 46 µM
  activity in ARE-luc assay (words): inactive in all assays
[1]; [12]
  activity in ARE-luc assay (words): inactive across all assays
[2]; follow-up studies, up to 46 µM
  activity in ARE-bla assay (words): inactive in all assays
[2]; [12]
  activity in ARE-bla assay (words): inactive across all assays
[2]; [13]
  activity in ARE-bla assay (words): showed activity
Mutated ARE; [14]
  ARE-bla mutant IC50: inactive
Mutated ARE; follow-up studies, up to 46 µM
  activity in ARE-bla-mut assay (words): inactive in all assays
Mutated ARE; [12]
  activity in ARE-bla-mut assay (words): inactive across all assays

## C[C@H](CCC(=O)[O-])[C@H]1CC[C@H]2[C@@H]3[C@H](O)C[C@@H]4C[C@H](O)CC[C@]4(C)[C@H]3C[C@H](O)[C@]12C.[Na+] [Sodium Cholate]
[1]; [11]
  ARE-luc EC50: inactive
[2]; [11]
  ARE-bla EC50: inactive
Mutated ARE; [14]
  ARE-bla mutant IC50: inactive

## CC(C)(c1ccc(O)cc1)c1ccc(O)cc1 [Bisphenol A]
[1]; [11]
  ARE-luc EC50: inactive
[2]; [8]
  Emax: 48%
[2]; [6]
  EC50: 12.5 ± 5.6 µM
Mutated ARE; [14]
  ARE-bla mutant IC50: inactive

## Nc1ccccc1N [o-Phenylenediamine]
[1]; [11]
  EC50: 27.3 ± 4.7 µM
[1]; [15]
  ARE-luc Efficacy: 151%
[2]; [11]
  EC50: 7.2 ± 4.1 µM
[2]; [15]
  ARE-bla Efficacy: 72%
Mutated ARE; [14]
  ARE-bla mutant IC50: inactive

## CCOCN(C(=O)CCl)c1c(C)cccc1CC [Acetochlor]
[1]; [5]
  Emax: 78%
[1]; [6]
  EC50: 21.9 ± 5.3 µM
[1]; follow-up studies, up to 46 µM
  activity in ARE-luc assay (words): active; also recorded: demonstrated activity
[1]; [13]
  activity in ARE-luc assay (words): high-quality active
[2]; [8]
  Emax: 86%
[2]; [6]
  EC50: 4.7 ± 1.6 µM
[2]; follow-up studies, up to 46 µM
  activity in ARE-bla assay (words): active; also recorded: demonstrated activity
[2]; [13]
  activity in ARE-bla assay (words): high-quality active
Mutated ARE; [14]
  ARE-bla mutant IC50: inactive

## [Cl][In]([Cl])[Cl] [Indium trichloride]
[1]; [11]
  EC50: 25 µM
[1]; [15]
  ARE-luc Efficacy: 312%
[2]; [11]
  EC50: 14.8 ± 4.9 µM
[2]; [15]
  ARE-bla Efficacy: 92%
Mutated ARE; [14]
  ARE-bla mutant IC50: inactive

## C/C=C1/C(=O)C[C@H]2[C@@H]3CCC4=CC(=O)CC[C@]4(C)[C@H]3CC[C@]12C [Guggulsterones E]
[1]
  ARE-luc Efficacy: 115
  EC50: 15.4 ± 2.6 µM
[2]
  ARE-bla Efficacy: 106
  EC50: 5 ± 3.1 µM
Mutated ARE
  ARE-bla mutant IC50: inactive

## Nc1cc(Cl)cc(Cl)c1 [3,5-Dichloroaniline]
[1]; [11]
  ARE-luc EC50: inactive
[2]; [11]
  ARE-bla EC50: inactive
Mutated ARE; [14]
  ARE-bla mutant IC50: inactive

## CN(C)c1ccc(N=O)cc1 [N,N-Dimethyl-p-nitrosoaniline]
[1]; Homo sapiens, HepG2, 16 h
  EC50: 29.2 ± 2 µM
[1]; [9]
  Emax: 626%
[2]; Homo sapiens, HepG2, 16 h
  EC50: 9.9 ± 3.4 µM
[2]; [10]
  Emax: 82%
Mutated ARE
  ARE-bla mutant IC50: inactive

## N[C@@H](Cc1ccc(N(CCCl)CCCl)cc1)C(=O)O [Melphalan, reference compound]
[1]; [11]
  ARE-luc EC50: inactive
[1]; follow-up studies, up to 46 µM
  activity in ARE-luc assay (words): inactive in all assays
[1]; [16]
  activity in ARE-luc assay (words): inactive across all assays
[2]; follow-up studies, up to 46 µM
  activity in ARE-bla assay (words): inactive in all assays
[2]; [16]
  activity in ARE-bla assay (words): inactive across all assays
[2]; [13]
  activity in ARE-bla assay (words): showed activity
Mutated ARE; [14]
  ARE-bla mutant IC50: inactive
Mutated ARE; follow-up studies, up to 46 µM
  activity in ARE-bla-mut assay (words): inactive in all assays
Mutated ARE; [16]
  activity in ARE-bla-mut assay (words): inactive across all assays

## O=C1c2ccccc2C(=O)C1c1ccc2ccccc2n1 [D & C Yellow II]
[1]; [11]
  EC50: 1.2 ± 0.7 µM
[1]; [17]
  ARE-luc Efficacy: 185%
[2]; [11]
  EC50: 0.7 ± 0.1 µM
[2]; [17]
  ARE-bla Efficacy: 88%
Mutated ARE; confirmation/follow-up studies
  ARE-bla mutant Efficacy: 48%
Mutated ARE; follow-up studies, up to 46 µM
  activity in ARE-bla-mut assay (words): may exhibit autofluorescence

## CCc1cccc(CC)c1N(COC)C(=O)CCl [Alachlor]
[1]; [5]
  Emax: 127%
[1]; [6]
  EC50: 19.9 ± 7.1 µM
[1]; follow-up studies, up to 46 µM
  activity in ARE-luc assay (words): active; also recorded: demonstrated activity
[2]; [8]
  Emax: 106%
[2]; [6]
  EC50: 5.9 ± 1.7 µM
[2]; follow-up studies, up to 46 µM
  activity in ARE-bla assay (words): active; also recorded: demonstrated activity
Olfactory mucosa
  genes associated with the generation of ROS and resulting oxidative damage: up-regulation
Mutated ARE; [14]
  ARE-bla mutant IC50: inactive

## c1ccc2cc3c(cc2c1)-c1cccc2cccc-3c12 [Benzo(k)fluoranthene]
[1]; Homo sapiens, HepG2, confirmation/follow-up studies, […], read-out: ARE-luc Efficacy
  Emax: 103%
[1]; [6]
  EC50: 4.9 ± 2.2 µM
[2]; Homo sapiens, HepG2, confirmation/follow-up studies, […], read-out: ARE-bla Efficacy
  Emax: 114%
[2]; [6]
  EC50: 1.6 ± 0.7 µM
Mutated ARE
  activity in ARE-bla-mut assay (words): may exhibit autofluorescence
Mutated ARE; confirmation/follow-up studies
  ARE-bla mutant Efficacy: 160%

## [Cd+2].[Cl-].[Cl-] [Cadmium II chloride]
[1]
  ARE-luc Efficacy: 446
  EC50: 1.1 ± 0.1 µM
[2]
  ARE-bla EC50: inactive
Mutated ARE
  ARE-bla mutant IC50: inactive
